Source: patent US12486228B2, “N-substituted indoles and use as allosteric modulators of cannabinoid receptors” (priority 2018, dated 2025)
Where two headings read alike, the source gives them in different places.

Assays:
Assay in all cases: cell-based
[1] = molecular target: T1, hCB1 (Homo sapiens, UniProt P21554); design: host or cells: CHO-K1
Description: HitHunter cAMP assay: Inhibition of forskolin-stimulated cAMP was determined using the DiscoveRx HitHunter assay in hCB1R CHO-K1 cells. Cells (20,000 cells/well in low-volume 96 well plates) were incubated overnight in Opti-MEM (Invitrogen) containing 1% FBS at 37° C. and 5% CO2. Following this, Opti-MEM media was removed and replaced with cell assay buffer (DiscoveRx) and cells were co-treated at 37° C. with 10 μM forskolin and hCB1R ligands (0.10 nM-10 μM) for 30 min or 90 min cAMP antibody solution and cAMP working detection solutions were then added to cells according to the manufacturer's directions (DiscoveRx®) and cells were incubated for 60 min at room temperature. cAMP solution A was added according to the manufacturer's directions (DiscoveRx®) and cells were incubated for an additional 60 min at room temperature before chemiluminescence was measured on a Cytation 5 plate reader (top read, gain 200, integration time 10,000 ms).

[2] = molecular target: T1, hCB1; design: host or cells: CHO-K1 PathHunter
Description: PathHunter CB1 β-Arrestin Assay: Chinese hamster ovary K1 (CHO-K1)-PathHunter hCB1 β-arrestin cells (DiscoveRx, Fremont, CA) were seeded at 5000 cells/well in 384-well plates 24 h before use and incubated at 37° C., 5% CO2. Compounds were dissolved in dimethyl sulfoxide (DMSO) and diluted in optimized cell culture (OCC) media. Agonist EC80 was determined directly from an agonist dose—response curve (data not shown). […] Five microliters of allosteric modulator or vehicle solution was added to each well at the appropriate concentrations and incubated for 30 min. Five microliters of agonist was then added to each well followed by a 90 min incubation. Fifteen microliters of detection reagent was then added followed by further 60 min incubation at room temperature. Chemiluminescence was measured on a standard luminescence plate reader as relative light units (RLU). Basal RLU was defined as zero. […] Data were analyzed using the fourparameter variable-slope and allosteric EC50 shift nonlinear regression equations in Prism 5.0 (GraphPad, San Diego, CA).

[3] = molecular target: T2, CB2 (Homo sapiens, UniProt P34972); conditions: CB2, agonist mode; for EC50: read-out: CB2 Agonist mode cAMP EC50; for Emax: read-out: CB2 Agonist mode cAMP Emax
T2 sequence (P34972 whole entry, species assumed): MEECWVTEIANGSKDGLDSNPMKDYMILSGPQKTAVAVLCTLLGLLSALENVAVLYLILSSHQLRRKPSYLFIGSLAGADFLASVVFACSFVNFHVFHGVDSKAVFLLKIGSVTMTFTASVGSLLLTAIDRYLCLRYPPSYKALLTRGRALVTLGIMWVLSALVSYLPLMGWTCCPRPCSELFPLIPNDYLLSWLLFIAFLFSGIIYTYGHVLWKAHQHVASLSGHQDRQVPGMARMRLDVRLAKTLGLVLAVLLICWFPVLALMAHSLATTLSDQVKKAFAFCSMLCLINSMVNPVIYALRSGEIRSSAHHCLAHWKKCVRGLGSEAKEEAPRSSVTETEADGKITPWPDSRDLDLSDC

[4] = molecular target: T2, CB2; conditions: CB2, agonist mode; for EC50: read-out: CB2 Agonist mode β-Arrestin EC50; for Emax: read-out: CB2 Agonist mode β-Arrestin Emax
[5] = CB1, PAM mode, read-out: CB1 PAM mode cAMP EC50
[6] = CB1, agonist mode, read-out: CB1 Agonist mode cAMP EC50
[7] = read-out: CB1 Agonist mode cAMP Emax, CB1, agonist mode
[8] = read-out: CB1 PAM mode cAMP Emax, CB1, PAM mode
[9] = CB1, PAM mode, read-out: CB1 PAM mode β-Arrestin EC50
[10] = CB1, agonist mode, read-out: CB1 Agonist mode β-Arrestin EC50
[11] = read-out: CB1 Agonist mode β-Arrestin Emax
[12] = read-out: CB1 PAM mode β-Arrestin Emax

T1 sequence (P21554 whole entry): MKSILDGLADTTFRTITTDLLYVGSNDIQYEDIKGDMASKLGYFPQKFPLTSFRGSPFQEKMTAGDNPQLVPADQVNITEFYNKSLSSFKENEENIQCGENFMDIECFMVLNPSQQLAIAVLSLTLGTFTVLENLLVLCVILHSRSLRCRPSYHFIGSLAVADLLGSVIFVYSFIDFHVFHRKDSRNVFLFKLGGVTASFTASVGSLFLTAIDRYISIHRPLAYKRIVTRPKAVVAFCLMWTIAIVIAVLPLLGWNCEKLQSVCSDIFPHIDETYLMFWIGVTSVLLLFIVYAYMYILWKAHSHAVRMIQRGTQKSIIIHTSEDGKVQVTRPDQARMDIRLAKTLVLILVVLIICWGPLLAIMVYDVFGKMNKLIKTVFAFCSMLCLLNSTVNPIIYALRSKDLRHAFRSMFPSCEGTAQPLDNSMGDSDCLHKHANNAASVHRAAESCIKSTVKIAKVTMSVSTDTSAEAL

| Structure (SMILES) | EC50 [1, 5] [nM] | EC50 [1, 6] [nM] | Emax [1, 7] [%] | Emax [1, 8] [%] | EC50 [2, 9] [nM] | EC50 [2, 10] [nM] | Emax [2, 11] [%] | Emax [2, 12] [%] | EC50 [3] [nM] | Emax [3] [%] | EC50 [4] [nM] | Emax [4] [%] | CB1 PAM mode cAMP Emax ([1]; CB1, PAM mode) | CB1 Agonist mode cAMP Emax ([1]; CB1, agonist mode) | CB1 PAM mode β-Arrestin Emax ([2]; CB1, PAM mode) | CB1 Agonist mode β-Arrestin Emax ([2]; CB1, agonist mode) | EC50 ([1]; CB1 PAM mode cAMP EC50, CB1, PAM mode) [nM] | EC50 [2] [nM] |
| --- | --- | --- | --- | --- | --- | --- | --- | --- | --- | --- | --- | --- | --- | --- | --- | --- | --- | --- |
| O=C(O)CC=C(c1ccccc1)c1cn(-c2ccccc2)c2ccccc12 (mixture of isomers) [Compound 16, (E and Z)-4-Phenyl-4-(1-phenyl-1H-indol-3-yl)but-3-enoic acid] | 934 | 689 | 94 | 104 | > 10000 | > 10000 | 0 | 0 | 359 | 80 | > 10000 | 0 | – | – | – | – | – | – |
| CC(CC(c1ccccc1)c1cn(-c2ccccc2)c2ccccc12)C(=O)O (racemic) [Compound 11, (±)-2-Methyl-4-phenyl-4-(1-phenyl-1H-indol-3-yl)butanoic acid] | 1890 | 1260 | 62 | 100 | > 10000 | > 10000 | 0 | 0 | – | – | – | – | – | – | – | – | – | – |
| CC(CC(c1ccccc1)c1cn(-c2ccccc2)c2ccccc12)C(=O)O (racemic) [Compound 12, (±)-2-Methyl-4-phenyl-4-(1-phenyl-1H-indol-3-yl)butanoic acid] | 704 | 1060 | – | – | > 10000 | > 10000 | – | – | – | – | – | – | (101) % | (60) % | (0) % | (0) % | – | – |
| O=C(O)C(c1ccccc1)c1cn(-c2ccccc2)c2ccccc12 (centres unmarked) [Compound 7, 2-Phenyl-2-(1-phenyl-1H-indol-3-yl)acetic acid] | 4180 | – | – | 78.9 | > 10000 | – | – | 0 | – | – | – | – | – | – | – | – | – | – |
| O=C(O)CC(c1ccccc1)c1cn(-c2ccccc2)c2ccccc12 (centres unmarked) [Compound 8, 3-Phenyl-3-(1-phenyl-1H-indol-3-yl)propanoic acid] | 509 | – | – | 144 | > 10000 | – | – | 0 | – | – | – | – | – | – | – | – | – | – |
| O=C(O)C(C(=O)O)C(c1ccccc1)c1cn(-c2ccccc2)c2ccccc12 (centres unmarked) [Compound 9, 2-(Phenyl(1-phenyl-1H-indol-3-yl)methyl)malonic acid] | 1280 | – | – | 158 | > 10000 | – | – | 0 | – | – | – | – | – | – | – | – | – | – |
| CCOC(=O)C(C(=O)O)C(c1ccccc1)c1cn(-c2ccccc2)c2ccccc12 (centres unmarked) [Compound 10, 3-Ethoxy-3-oxo-2-(phenyl(1-phenyl-1H-indol-3-yl)methyl)propanoic acid] | > 10000 | – | – | 6.98 | > 10000 | – | – | 4.59 | – | – | – | – | – | – | – | – | – | – |
| CCOC(=O)CCC(c1ccccc1)c1cn(-c2ccccc2)c2ccccc12 (centres unmarked) [Compound 13, Ethyl 4-phenyl-4-(1-phenyl-1H-indol-3-yl)butanoate] | > 10000 | – | – | 0 | > 10000 | – | – | 0 | – | – | – | – | – | – | – | – | – | – |
| O=C(O)/C=C\C(c1ccccc1)c1cn(-c2ccccc2)c2ccccc12 (centres unmarked) [Compound 15, (Z)-4-phenyl-4-(1-phenyl-1H-indol-3-yl)but-2-enoic acid] | 639 | 506 | 86 | 84 | > 10000 | > 10000 | 0 | 0 | 1050 | 81 | > 10000 | 0 | – | – | – | – | – | – |
| Cc1ccc2c(C(CCC(=O)O)c3ccccc3)cn(-c3ccccc3)c2c1 (centres unmarked) [Compound 17, 4-(6-Methyl-1-phenyl-1H-indol-3-yl)-4-phenylbutanoic acid] | 1440 | 1250 | 73 | 93 | > 10000 | > 10000 | 0 | 0 | 1000 | 74 | > 10000 | 0 | – | – | – | – | – | – |
| O=C(O)CCC(c1ccccc1)c1cn(Cc2ccccc2)c2ccccc12 (centres unmarked) [Compound 18, 4-(1-Penzyl-1H-indol-3-yl)-4-phenylbutanoic acid] | 610 | 1040 | 87 | 97 | > 10000 | > 10000 | 0 | 0 | 407 | 64 | > 10000 | 0 | – | – | – | – | – | – |
| O=C(O)CCCC(c1ccccc1)c1cn(-c2ccccc2)c2ccccc12 (centres unmarked) [Compound 19, 5-Phenyl-5-(1-phenyl-1H-indol-3-yl)pentanoic acid] | 1420 | 827 | 98 | 98 | > 10000 | > 10000 | 0 | 0 | 654 | 95 | > 10000 | 0 | – | – | – | – | – | – |
| O=C(O)CCCCC(c1ccccc1)c1cn(-c2ccccc2)c2ccccc12 (centres unmarked) [Compound 20, 6-Phenyl-6-(1-phenyl-1H-indol-3-yl)hexanoic acid] | 1090 | 355 | 96 | 96 | > 10000 | > 10000 | 0 | 0 | 505 | 98 | > 10000 | 0 | – | – | – | – | – | – |
| O=C(O)CCC(c1ccccc1)c1cn(-c2ccccn2)c2ccccc12 (centres unmarked) [Compound 21, 4-Phenyl-4-(1-(pyridin-2-yl)-1H-indol-3-yl)butanoic acid] | 869 | 457 | 95 | 96 | > 10000 | > 10000 | 0 | 0 | 1110 | 85 | > 10000 | 0 | – | – | – | – | – | – |
| O=C(O)CCC(c1ccccc1)c1cn(-c2cccnc2)c2ccccc12 (centres unmarked) [Compound 22, 4-Phenyl-4-(1-(pyridin-3-yl)-1H-indol-3-yl)butanoic acid] | 1000 | 831 | 87 | 109 | > 10000 | > 10000 | 0 | 0 | 731 | 68 | > 10000 | 0 | – | – | – | – | – | – |
| OC(c1ccccc1)c1cn(-c2ccccc2)c2ccccc12 (centres unmarked) [Compound 30, Phenyl(1-phenyl-1H-indol-3-yl)methanol] | > 10000 | – | – | 0 | > 10000 | – | – | 0 | – | – | – | – | – | – | – | – | – | – |
| OCC(c1ccccc1)c1cn(-c2ccccc2)c2ccccc12 (centres unmarked) [Compound 31, 2-Phenyl-2-(1-phenyl-1H-indol-3-yl)ethan-1-ol] | > 10000 | – | – | 1.31 | > 10000 | – | – | 0 | – | – | – | – | – | – | – | – | – | – |
| OCCC(c1ccccc1)c1cn(-c2ccccc2)c2ccccc12 (centres unmarked) [Compound 32, 3-Phenyl-3-(1-phenyl-1H-indol-3-yl)propan-1-ol] | > 10000 | – | – | 27.1 | > 10000 | – | – | 0 | – | – | – | – | – | – | – | – | – | – |
| OCCCC(c1ccccc1)c1cn(-c2ccccc2)c2ccccc12 (centres unmarked) [Compound 34, 4-Phenyl-4-(1-phenyl-1H-indol-3-yl)butan-1-ol] | > 10000 | – | – | 0 | > 10000 | – | – | 5 | – | – | – | – | – | – | – | – | – | – |
| OCC(c1ccccc1)c1cn(-c2ccccc2)c2ccc(Cl)cc12 (centres unmarked) [Compound 35, 2-(5-Chloro-1-phenyl-1H-indol-3-yl)-2-phenylethan-1-ol] | > 10000 | – | – | 2.81 | > 10000 | – | – | 0 | – | – | – | – | – | – | – | – | – | – |
| NC(=O)CC(c1ccccc1)c1cn(-c2ccccc2)c2ccccc12 (centres unmarked) [Compound 38, 3-Phenyl-3-(1-phenyl-1H-indol-3-yl)propanamide] | > 10000 | – | – | 27.1 | > 10000 | – | – | 0 | – | – | – | – | – | – | – | – | – | – |
| c1ccc(C(Cc2nnn[nH]2)c2cn(-c3ccccc3)c3ccccc23)cc1 (centres unmarked) [Compound 39, 1-Phenyl-3-(1-phenyl-2-(1H-tetrazol-5-yl)ethyl)-1H-indole] | 423 | – | – | 94 | > 10000 | – | – | 0 | – | – | – | – | – | – | – | – | – | – |
| O=C(c1ccccc1)c1cn(-c2ccccc2)c2ccccc12 [Compound 40, Phenyl(1-phenyl-1H-indol-3-yl)methanone] | – | – | – | 11.7 | – | – | – | 0.273 | – | – | – | – | – | – | – | – | > 10000 | > 10000 |
